In US9326973B2, “Hepatitis C virus inhibitors” (priority 2012, dated 2016):

System: HCV replicon, genotype-1a variant with glutamine 30 changed to glutamate in the NS5A protein
Assay: microbe, parasite or virus in culture
Assay type: cell-based, HCV genotype 1a
Conditions: HCV replicon genotype 1a Q30E (Q→E) variant; test compound titrated with an NS5A-targeting compound (BMS-790052 fixed at 200 nM); ranking of synergist activity
Procedure, shortened: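 Synergy was assessed by combining several fixed amounts of an NS5A-targeting compound with a titration of the second compound of interest.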

SMILES | Fold-Synergistic 1a (Q30E)
CC(C)(C)NC(C)(C)C(=O)N[C@H](c1nc(-c2ccc(-c3ccc(-c4c[nH]c([C@@H](NC(=O)C(C)(C)NC(C)(C)C)C(C)(C)C)n4)cc3)cc2)c[nH]1)C(C)(C)C [Compound P-175] | >100 fold
Cc1nn(C)c2ncc(C(=O)N3CCC[C@H]3c3ncc(-c4ccc(-c5ccc(-c6cnc([C@@H]7CCCN7C(=O)c7cnc8c(c(C)nn8C)c7Cl)[nH]6)cc5)cc4)[nH]3)c(Cl)c12 [Compound S-132] | <10 fold
O=C(C1CCCCCC1)N1CCC[C@H]1c1ncc(-c2ccc(-c3ccc(-c4cnc([C@@H]5CCCN5C(=O)C5CCCCCC5)[nH]4)cc3)cc2)[nH]1 [Compound S-176] | >10 fold
COCC1(C(=O)N[C@H](c2nc(-c3ccc(-c4ccc(-c5c[nH]c([C@@H](NC(=O)C6(COC)CCCCO6)C(C)(C)C)n5)cc4)cc3)c[nH]2)C(C)(C)C)CCCCO1 (some centres unmarked) [Compound P-183] | >100 fold
COc1ccccc1C1OC(=O)C[C@@H]1C(=O)N[C@H](c1nc(-c2ccc(-c3ccc(-c4c[nH]c([C@@H](NC(=O)[C@H]5CC(=O)OC5c5ccccc5OC)C(C)(C)C)n4)cc3)cc2)c[nH]1)C(C)(C)C (some centres unmarked) [Compound S-263] | >10 fold
CCN(CC(F)(F)F)C(=O)C(=O)N[C@H](c1nc(-c2ccc(-c3ccc(-c4c[nH]c([C@@H](NC(=O)C(=O)N(CC)CC(F)(F)F)C(C)C)n4)cc3)cc2)c[nH]1)C(C)C [Compound W-56] | >100 fold
O=C(C(c1ccccc1)c1ccccc1)N1CCC[C@H]1c1ncc(-c2ccc(-c3ccc(-c4cnc([C@@H]5CCCN5C(=O)C(c5ccccc5)c5ccccc5)[nH]4)cc3)cc2)[nH]1 [Compound S-146] | <10 fold
C[C@]1(C(=O)N2CCC[C@H]2c2ncc(-c3ccc(-c4ccc(-c5cnc([C@@H]6CCCN6C(=O)[C@@]6(C)CCC(F)(F)CO6)[nH]5)cc4)cc3)[nH]2)CCC(F)(F)CO1 [Compound P-186] | <10 fold
CCN(CCOC)C(=O)C(C)(C)C(=O)N[C@H](c1nc(-c2ccc(-c3ccc(-c4c[nH]c([C@@H](NC(=O)C(C)(C)C(=O)N(CC)CCOC)C(C)(C)C)n4)cc3)cc2)c[nH]1)C(C)(C)C [Compound W-157] | >10 fold
CC(C)[C@H](O)C(=O)N[C@H](c1nc(-c2ccc(-c3ccc(-c4c[nH]c([C@@H](NC(=O)[C@@H](O)C(C)C)C(C)(C)C)n4)cc3)cc2)c[nH]1)C(C)(C)C [Compound L-78] | >100 fold
C=C1C[C@@H](C(=O)N[C@H](c2nc(-c3ccc(-c4ccc(-c5c[nH]c([C@@H](NC(=O)[C@@H]6CC(=C)CN6C(=O)OC(C)(C)C)C(C)C)n5)cc4)cc3)c[nH]2)C(C)C)N(C(=O)OC(C)(C)C)C1 [Compound W-89] | >100 fold
CC(C)[C@H](NC(=O)[C@@]1(C)CC(F)(F)CO1)c1nc(-c2ccc(-c3ccc(-c4c[nH]c([C@@H](NC(=O)[C@@]5(C)CC(F)(F)CO5)C(C)C)n4)cc3)cc2)c[nH]1 [Compound Y-80] | >100 fold
C=C[C@@H]1C[C@]1(NC(=O)OC(C)(C)C)C(=O)N[C@H](c1nc(-c2ccc(-c3ccc(-c4c[nH]c([C@@H](NC(=O)[C@@]5(NC(=O)OC(C)(C)C)C[C@H]5C=C)C(C)(C)C)n4)cc3)cc2)c[nH]1)C(C)(C)C [Compound W-7] | >100 fold
CC(=O)N1CCC(C(=O)N[C@H](c2nc(-c3ccc(-c4ccc(-c5c[nH]c([C@@H](NC(=O)C6CCN(C(C)=O)CC6)C(C)(C)C)n5)cc4)cc3)c[nH]2)C(C)(C)C)CC1 [Compound S-297] | >10 fold
O=C(CC1CCCCC1)N1CCC[C@H]1c1ncc(-c2ccc(-c3ccc(-c4cnc([C@@H]5CCCN5C(=O)CC5CCCCC5)[nH]4)cc3)cc2)[nH]1 [Compound S-168] | >10 fold
COC(=O)N[C@@H](C(=O)NC1(c2nc(-c3ccc(-c4ccc(-c5c[nH]c(C6(NC(=O)[C@H](NC(=O)OC)C(C)C)CC=CC6)n5)cc4)cc3)c[nH]2)CC=CC1)C(C)C [Compound N-14] | <10 fold
CC(C)(C)OC(=O)N1[C@H](C(=O)N[C@H](c2nc(-c3ccc(-c4ccc(-c5c[nH]c([C@@H](NC(=O)[C@@H]6COC(C)(C)N6C(=O)OC(C)(C)C)C(C)(C)C)n5)cc4)cc3)c[nH]2)C(C)(C)C)COC1(C)C [Compound L-55] | >100 fold
C[C@H]1CC[C@@H](C(=O)N[C@H](c2nc(-c3ccc(-c4ccc(-c5c[nH]c([C@@H](NC(=O)[C@@H]6CC[C@H](C)N6C(=O)OC(C)(C)C)C(C)(C)C)n5)cc4)cc3)c[nH]2)C(C)(C)C)N1C(=O)OC(C)(C)C [Compound W-69] | >100 fold
CC(C)(C)[C@H](NC(=O)C1CCOCC1)c1nc(-c2ccc(-c3ccc(-c4c[nH]c([C@@H](NC(=O)C5CCOCC5)C(C)(C)C)n4)cc3)cc2)c[nH]1 [Compound W-123] | >100 fold
CC(C)(C)[C@H](NC(=O)C1CCC2(CC1)CC2)c1nc(-c2ccc(-c3ccc(-c4c[nH]c([C@@H](NC(=O)C5CCC6(CC5)CC6)C(C)(C)C)n4)cc3)cc2)c[nH]1 (some centres unmarked) [Compound N-123] | >100 fold
CC(C)(C)[C@H](NC(=O)C1(CO)CCCCO1)c1nc(-c2ccc(-c3ccc(-c4c[nH]c([C@@H](NC(=O)C5(CO)CCCCO5)C(C)(C)C)n4)cc3)cc2)c[nH]1 (some centres unmarked) [Compound P-177] | >100 fold
CC(C)(CF)C(=O)N[C@H](c1nc(-c2ccc(-c3ccc(-c4c[nH]c([C@@H](NC(=O)C(C)(C)CF)C5(C)CC5)n4)cc3)cc2)c[nH]1)C1(C)CC1 [Compound P-143] | >100 fold
O=C(CC(F)(F)F)N1CCC[C@H]1c1ncc(-c2ccc(-c3ccc(-c4cnc([C@@H]5CCCN5C(=O)CC(F)(F)F)[nH]4)cc3)cc2)[nH]1 [Compound S-193] | <10 fold
CC1(C(=O)N[C@H](c2nc(-c3ccc(-c4ccc(-c5c[nH]c([C@@H](NC(=O)C6(C)OCCCO6)C(C)(C)C)n5)cc4)cc3)c[nH]2)C(C)(C)C)OCCCO1 [Compound L-83] | >100 fold
C[C@@H]1CN(C(=O)C(=O)N[C@H](c2nc(-c3ccc(-c4ccc(-c5c[nH]c([C@@H](NC(=O)C(=O)N6C[C@@H](C)O[C@@H](C)C6)C6(C)CC6)n5)cc4)cc3)c[nH]2)C2(C)CC2)C[C@H](C)O1 [Compound W-61] | >100 fold
CC(C)(C)OC(=O)N1CCC(C(=O)N[C@H](c2nc(-c3ccc(-c4ccc(-c5c[nH]c([C@@H](NC(=O)C6CCN(C(=O)OC(C)(C)C)CC6)C(C)(C)C)n5)cc4)cc3)c[nH]2)C(C)(C)C)CC1 [Compound S-264] | >100 fold
COC(C)(C)[C@H](NC(=O)C(C)(C)CF)c1nc(-c2ccc(-c3ccc(-c4c[nH]c([C@@H](NC(=O)C(C)(C)CF)C(C)(C)OC)n4)cc3)cc2)c[nH]1 [Compound P-10] | >100 fold
CC(C)(C)[C@H](NC(=O)[C@@H]1C[C@@H](F)CN1C(=O)OCCF)c1nc(-c2ccc(-c3ccc(-c4c[nH]c([C@@H](NC(=O)[C@@H]5C[C@@H](F)CN5C(=O)OCCF)C(C)(C)C)n4)cc3)cc2)c[nH]1 [Compound W-108] | >100 fold
CC(C)(Br)C(=O)N[C@H](c1nc(-c2ccc(-c3ccc(-c4c[nH]c([C@@H](NC(=O)C(C)(C)Br)C(C)(C)C)n4)cc3)cc2)c[nH]1)C(C)(C)C [Compound W-149] | >100 fold
